Positions of bridges follow the written chain, without caps; N, C: chain ends. Residues, ends and D or L forms follow the SMILES beside them.
System: cirrhotic patients with tense ascites
Conditions: human, in vivo
Experimental: Patient selection criteria: 24 clinically stable cirrhotic patients with tense ascites in need of therapeutic paracentesis were recruited to the study.
Treatment: Both groups received therapeutic paracentesis according to the usual protocol of the study centre. […] Plasma renin and aldosterone levels were measured as markers of blood volume. Certain other parameters were determined as secondary criteria for successful treatment.

- Creatininaemia: 72 ± 8
- Natraemia: 133 ± 1 mmol/L
SMILES: NCCCC[C@H](NC(=O)[C@@H]1CCCN1C(=O)[C@@H]1CSSC[C@H](NC(=O)CNC(=O)CNC(=O)CN)C(=O)N[C@@H](Cc2ccc(O)cc2)C(=O)N[C@@H](Cc2ccccc2)C(=O)N[C@@H](CCC(N)=O)C(=O)N[C@@H](CC(N)=O)C(=O)N1)C(=O)NCC(N)=O [Terlipressin] (H-GGGCYFQNCPKG-NH2; disulfide 4-9)

— patent US20040102362A1, “Protocol for paracentesis” (priority 2000, published 2004)
